Experimental data from US20030087942A1, “Method for the treatment and prevention of cachexia” (Washington University, priority 2001, published 2003).

Key:
[1] = mouse, in vivo, 10 mg/kg
Procedure: (§1) Animal housing. […] For pharmacological inhibitor studies, male C3H/HeN mice (Harlan Sprague Dawley, Inc., Indianapolis, Ind.) 10-12 wks of age were evaluated according to the method of Gross et al., Am J Physiol 278: R1415-23, 2000. See also Silver et al., J Clin Invest 95: 725-31, 1995. […] Control mice designated “WT” for the COX KO experiments were WT and heterozygous littermates arising from the COX-2 heterozygous matings. All mouse protocols were in accordance with NIH guidelines and approved by the Animal Care and Use Committee of Washington University School of Medicine.

LPS-induced weight loss = format: in vivo, mice (C3H/HeN)
Procedure: as §1

IL-6 = assay: Plasma IL-6 after LPS (ELISA); format: in vivo, mice (C3H/HeN)
Source text: (§2) Serum corticosterone, leptin, and IL-6 measurements.

CRH mRNA = assay: Hypothalamic in situ mRNA hybridization, CRH; format: in vivo, mice (C3H/HeN); conditions: Compound 1/LPS group; 16 h after LPS with food withdrawal
Procedure: Hypothalamic in situ mRNA hybridization. […] After 24 h immersion in 4% paraformaldehyde, hypothalami were cryoprotected in 10% sucrose in DEPC D-PBS. Samples were embedded in OCT (Sakura Finetek USA, Inc., Torrance, Calif.), cut into 10 micron sections on a cryostat, and thaw mounted onto Superfrost plus slides (Fisher Scientific, Pittsburgh, Pa.). In situ hybridization utilized α-^33P-UTP-labelled 320 base anti-sense riboprobe from the mouse CRH gene or a 511 base anti-sense riboprobe from the rat neuropeptide Y (NPY) cDNA (generously provided by Dr. Steven Sabol, NHLBI, NIH) by methods described (e.g., Muglia et al., J Neurosci 19: 2051-8, 1999). For CRH and NPY mRNA detection, the regions of the hypothalamic paraventicular and arcuate nuclei were determined by Nissl staining and light microscopy. Six sections spanning each nucleus were hybridized to CRH (paraventricular nucleus) or NPY (arcuate nucleus) probes, and the two sections of peak intensity imaged for densitometric analysis. Hybridizing probes were quantitated by exposure of slides to Hyperfilm-βMax (Amersham Life Science, Inc., Arlington Heights, Ill.) with densitometric analysis employing NIH Image Software.

leptin = assay: Plasma leptin after LPS (ELISA); format: in vivo, mice (C3H/HeN); conditions: after LPS (3 h and 16 h)
Source text: as §2

[2] = 24 h period following LPS
Procedure: LPS-induced anorexia. C3H/HeN male mice were singly housed and acclimatized for at least 2 days to cages with grid bottoms prior to treatments. Body weight and food intake was measured daily until a stable baseline was obtained. Mice received either vehicle (phosphate buffered saline; PBS) or 100 μg of lipopolysaccharide (Escherichia coli 0111 :B4, Sigma, St. Louis, Mo.) in PBS via shallow midline, mid-abdominal, intraperitoneal injection. […] To determine the effect of COX inhibition, mice were pretreated with either vehicle (phosphate buffered saline plus 1% Tween 80), or vehicle plus agent 30 minutes prior to i.p. injection of LPS or vehicle, and re-dosed at 8 and 24 hrs after LPS. Cyclooxygenase inhibitors were administered via gavage using olive-tipped needles.

COc1ccc2c(c1)c(CC(=O)O)c(C)n2C(=O)c1ccc(Cl)cc1 [indomethacin]
change in body weight relative to vehicle-treated control mice [1]: no change in body weight
weight loss associated with LPS administration, vs. vehicle/LPS (LPS-induced weight loss; 100 μg LPS i.p., gavage 30 min before, 8 and 24 h after LPS, indomethacin 150 μg/dose, Compound 1 300 μg/dose): tended to reduce the weight loss

COc1ccc(-n2nc(C(F)(F)F)cc2-c2ccc(Cl)cc2)cc1 [Compound 2]
body weight in comparison to the vehicle/LPS group (LPS-induced weight loss; 3 days after treatment, 300 μg/dose (10 mg/kg) gavage plus LPS): sustained weight reduction

NS(=O)(=O)c1ccc(-n2nc(C(F)(F)F)cc2-c2ccc(Cl)cc2)cc1 [Compound 1]
difference in weight loss between LPS-treated Compound 1 and Compound 2 groups (LPS-induced weight loss; 2 and 3 days after LPS treatment): remained significant
magnitude of early induction of plasma IL-6 vs. LPS alone (IL-6; 3 h after LPS): no change
sustained increases in plasma IL-6 vs. LPS alone (IL-6; 16 hours after LPS): no change
elevation of CRH mRNA in the paraventricular nucleus of the hypothalamus (CRH mRNA): approximately 3 fold
magnitude of induction of leptin, vehicle/LPS vs. Compound 1/LPS (leptin): did not differ
hypophagic response after LPS [2]: attenuated, but did not completely block the hypophagic response
